Measurements as given in patent publication US11179348B2, “Combination comprising pterostilbene for the treatment of cancer” (FUNDACIÓN UNIVERSIDAD CATÓLICA DE VALENCIA SAN VICENTE …, priority 2015, dated 2021).

System: HepG2 cells isolated from tumor-bearing mice
Assay: Chemosensitization of cultured HepG2 cells isolated from xenografts
Assay type: cell-based, human
Conditions: 72 h-cultured, PL 0.2 μM, Chemo 0.15 μM DXR, Pter = in vivo pretreatment
Experimental: FIGS. 18-25. Effect of piperlongumine and I-BET762, as GSH depleting and chemosensitizing agents, in in vitro growing human melanoma, pancreatic, breast, lung, liver, prostate, ovarian, and colorectal cancer cells. Cancer cells, isolated from Pter-treated tumor-bearing mice, were cultured as indicated under Methods. Chemotherapy (0.25 μM PAC.PBP in A2058 melanoma and MDA-MB-231 breast carcinoma cells; 0.125 μM PAC.PBP and 25 μM GTB in AsPC-1 pancreatic cancer cells; 1 μM VRB and 15 μM cisPt in A459 lung carcinoma cells; 0.15 μM DXR in HepG2 hepatocellular carcinoma cells; 15 nM DCT in PC-3 prostate carcinoma cells; 0.15 μM PAC.PBP and 25 μM CarboPt in SK-OV-3 ovarian carcinoma cells; 3 μM 5-FU, 1 μM FA and 0.6 μM IRI in HT-29 colorectal carcinoma cells) was added to the cultured flasks 24 h after seeding. […]
Human A2058, MeWo and MelJuso melanoma cells, and mouse AtT-20 pituitary corticotroph tumor cells were from the American Type Culture Collection (ATCC). […] Cell numbers were determined using a Coulter Counter (Coulter Electronic Inc., Miami, Fla.). […] Cellular viability was assessed as previously reported (Mena, S. et al. Clin Cancer Res 13, 2658-2666 (2007)), by measuring trypan blue exclusion and leakage of lactate dehydrogenase activity. […]

## COc1cc(/C=C/c2ccc(O)cc2)cc(OC)c1 [Pter, trans-3,5-dimethoxy-4′-hydroxystilbene]
  Viable cells: 1580 ± 318 ×10^6
